Measurements: PubChem BioAssay AID248 (DTP/NCI, 2004)
“And” between values parts separate entries of the source, which are not always exact repeats. Equal values may be shown once. Toxic doses and inconclusive results are not listed.

Tested on: L1210 leukemia ip in BDF1 mice, survival T/C
Experiment: NCI In Vivo Anticancer Drug Screen. Data for tumor model L1210 Leukemia (intraperitoneal) in B6D2F1 (BDF1) mice
Conditions: higher = longer survival
Method in brief: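 Read-out is survival time, reported as the treated-group measurement over the vehicle-control measurement.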

[1] = endpoint: mean survival time, dose: 100.0 mg/kg/injection, schedule: Q01DX001 (ip), vehicle: saline
[2] = endpoint: mean survival time, dose: 100.0 mg/kg/injection, schedule: Q01DX009 (ip), vehicle: saline
[3] = endpoint: mean survival time, dose: 200.0 mg/kg/injection, schedule: Q01DX001 (ip), vehicle: saline
[4] = endpoint: mean survival time, dose: 400.0 mg/kg/injection, schedule: Q01DX001 (ip), vehicle: saline
[5] = endpoint: mean survival time, dose: 150.0 mg/kg/injection, schedule: Q01DX001 (ip), vehicle: saline
[6] = endpoint: mean survival time, dose: 75.0 mg/kg/injection, schedule: Q01DX001 (ip), vehicle: saline
[7] = endpoint: mean survival time, dose: 100.0 mg/kg/injection, schedule: Q04DX002 (ip), vehicle: Klucel (hydroxypropylcellulose) (HPC)
[8] = endpoint: mean survival time, dose: 200.0 mg/kg/injection, schedule: Q04DX002 (ip), vehicle: Klucel (hydroxypropylcellulose) (HPC)
[9] = endpoint: mean survival time, dose: 400.0 mg/kg/injection, schedule: Q04DX002 (ip), vehicle: Klucel (hydroxypropylcellulose) (HPC)

## CCCc1nc2c(OC)ccc(OC)c2nc1C
endpoint: mean survival time, dose: 12.5 mg/kg/injection, schedule: Q01DX009 (ip), vehicle: Klucel (hydroxypropylcellulose) (HPC)
  T/C: 98 % of control
endpoint: mean survival time, dose: 25.0 mg/kg/injection, schedule: Q01DX009 (ip), vehicle: Klucel (hydroxypropylcellulose) (HPC)
  T/C: 97 % of control
endpoint: mean survival time, dose: 50.0 mg/kg/injection, schedule: Q01DX009 (ip), vehicle: Klucel (hydroxypropylcellulose) (HPC)
  T/C: 92 % of control
endpoint: mean survival time, dose: 100.0 mg/kg/injection, schedule: Q01DX009 (ip), vehicle: Klucel (hydroxypropylcellulose) (HPC)
  T/C: 94 % of control
endpoint: mean survival time, dose: 100.0 mg/kg/injection, schedule: Q04DX003 (ip), vehicle: acetone
  T/C: 97 % of control
endpoint: mean survival time, dose: 200.0 mg/kg/injection, schedule: Q01DX009 (ip), vehicle: Klucel (hydroxypropylcellulose) (HPC)
  T/C: 86 % of control
endpoint: mean survival time, dose: 200.0 mg/kg/injection, schedule: Q04DX003 (ip), vehicle: acetone
  T/C: 97 % of control
endpoint: mean survival time, dose: 400.0 mg/kg/injection, schedule: Q04DX003 (ip), vehicle: acetone
  T/C: 98 % of control

## CN(C)c1ccc2c(c1)N=Nc1cc(N(C)C)ccc1C2
endpoint: mean survival time, dose: 100.0 mg/kg/injection, schedule: Q01DX001 (ip), vehicle: Klucel (hydroxypropylcellulose) (HPC)
  T/C: 87 % of control
endpoint: mean survival time, dose: 200.0 mg/kg/injection, schedule: Q01DX001 (ip), vehicle: Klucel (hydroxypropylcellulose) (HPC)
  T/C: 91 % of control
endpoint: mean survival time, dose: 400.0 mg/kg/injection, schedule: Q01DX001 (ip), vehicle: Klucel (hydroxypropylcellulose) (HPC)
  T/C: 87 % of control

## CCCCCCCCC/C(C)=C1/SC(=S)NC1=O
[1]
  T/C: 102 % of control
[2]
  T/C: 88 % of control
[3]
  T/C: 93 % of control
[4]
  T/C: 95 % of control

## COC1OC(CO)C(O)C(O)C1O (stereo not drawn)
endpoint: mean survival time, dose: 44.0 mg/kg/injection, schedule: Q01DX001 (ip), vehicle: saline
  T/C: 102 % of control and 105 % of control
endpoint: mean survival time, dose: 50.0 mg/kg/injection, schedule: Q01DX001 (ip), vehicle: saline
  T/C: 102 % of control
endpoint: mean survival time, dose: 50.0 mg/kg/injection, schedule: Q01DX009 (ip), vehicle: saline
  T/C: 90 % of control
endpoint: mean survival time, dose: 66.0 mg/kg/injection, schedule: Q01DX001 (ip), vehicle: saline
  T/C: 96 % of control and 100 % of control
[1]
  T/C: 100 % of control and 107 % of control
[2]
  T/C: 109 % of control
[5]
  T/C: 105 % of control and 107 % of control
[3]
  T/C: 100 % of control
endpoint: mean survival time, dose: 200.0 mg/kg/injection, schedule: Q01DX009 (ip), vehicle: saline
  T/C: 93 % of control
[4]
  T/C: 111 % of control

## CN(C(=O)N(CCCl)N=O)C1CCCCC1
[6]
  T/C: 109 % of control
[5]
  T/C: 93 % of control

## OCC(O)C(O)C(O)C1COC(CBr)O1 (stereo not drawn)
[7]
  T/C: 90 % of control
[8]
  T/C: 93 % of control
[9]
  T/C: 108 % of control

## CCOC(=O)c1c[nH]c2oc(/C=N/N3CC(CN4CCOCC4)OC3=O)cc2c1=O (stereo not drawn)
endpoint: median survival time, dose: 25.0 mg/kg/injection, schedule: Q01DX009 (ip), vehicle: acid diluted with saline
  T/C: 110 % of control
endpoint: median survival time, dose: 50.0 mg/kg/injection, schedule: Q01DX009 (ip), vehicle: acid diluted with saline
  T/C: 111 % of control
endpoint: median survival time, dose: 200.0 mg/kg/injection, schedule: Q01DX009 (ip), vehicle: acid diluted with saline
  T/C: 152 % of control

## CC(=O)Nc1ccc(C(=O)O)cc1
[7]
  T/C: 88 % of control
[8]
  T/C: 92 % of control
[9]
  T/C: 111 % of control

## Cc1ccc(CCN)cc1C
endpoint: mean survival time, dose: 25.0 mg/kg/injection, schedule: Q04DX003 (ip), vehicle: saline
  T/C: 103 % of control
endpoint: mean survival time, dose: 50.0 mg/kg/injection, schedule: Q04DX003 (ip), vehicle: saline
  T/C: 101 % of control
endpoint: mean survival time, dose: 100.0 mg/kg/injection, schedule: Q04DX003 (ip), vehicle: saline
  T/C: 101 % of control and 112 % of control

## CCCCCCC(C)C(COC(=O)c1ccc([N+](=O)[O-])cc1)NCC (stereo not drawn)
[6]
  T/C: 93 % of control
[5]
  T/C: 96 % of control

## CNCc1ccccc1Cc1ccccc1
[6]
  T/C: 100 % of control
[5]
  T/C: 97 % of control
endpoint: mean survival time, dose: 300.0 mg/kg/injection, schedule: Q01DX001 (ip), vehicle: saline
  T/C: 95 % of control

## CN(C)/N=C(\CBr)c1ccc(Br)cc1
endpoint: mean survival time, dose: 50.0 mg/kg/injection, schedule: Q01DX009 (ip), vehicle: saline with Tween-80
  T/C: 96 % of control
endpoint: mean survival time, dose: 100.0 mg/kg/injection, schedule: Q01DX009 (ip), vehicle: saline with Tween-80
  T/C: 107 % of control
endpoint: mean survival time, dose: 200.0 mg/kg/injection, schedule: Q01DX009 (ip), vehicle: saline with Tween-80
  T/C: 89 % of control

## CC1(C)OCC(C2OC(=S)OC2C2COC(C)(C)O2)O1 (stereo not drawn)
endpoint: mean survival time, dose: 50.0 mg/kg/injection, schedule: Q04DX002 (ip), vehicle: Klucel (hydroxypropylcellulose) (HPC)
  T/C: 93 % of control
[7]
  T/C: 98 % of control
[8]
  T/C: 104 % of control

## O=C(COc1ccc(Cl)cc1)Nc1cccc2ccccc12
[7]
  T/C: 87 % of control
[8]
  T/C: 93 % of control
[9]
  T/C: 101 % of control
